Reference: patent publication US12016858B2, “Methods for the treatment of abnormal involuntary movement disorders” (AUSPEX PHARMACEUTICALS, INC., priority 2015, dated 2024)

Tests used:
[1] = system: cardiac repolarization (QTcF interval); assay: TQT study, six-period crossover, placebo- and positive-controlled; type: in vivo, healthy volunteers
Experimental: Study Design. Given the known risk for tetrabenazine to increase the QT interval, a TQT study of deutetrabenazine, which included tetrabenazine as a treatment arm, was conducted in 48 healthy volunteers. This was a single-center, randomized, double-blind, placebo- and positive-controlled six-period crossover study to evaluate the effects of low-dose (12 mg) and high-dose (24 mg) deutetrabenazine on cardiac repolarization, based on placebo-corrected, time-matched changes from baseline in the QTcF interval. Assay sensitivity was established by using moxifloxacin 400 mg as the positive control.
The key outcome measure was to determine the effect of single doses of deutetrabenazine on the QTc interval.
In the table above, ΔΔQTcF is defined as the difference between the least squares mean change from baseline for the active drug and placebo. deutetrabenazine was compared with deutetrabenazine placebo (administered under fed conditions) and tetrabenazine was compared with tetrabenazine placebo (administered under fasted conditions). […] The upper limit of the 95% one-sided confidence interval is the upper limit of the 90% 2-sided confidence interval.

[2] = system: patients with hyperkinetic movement disorders; settings: retrospective study of 98 patients; cited from earlier work
[3] = system: patients with HD; settings: cited from earlier work
[4] = system: QTc interval; settings: 50 mg; 90% two-sided CI: 5.0, 10.4 ms; cited from earlier work
[5] = 12-week placebo-controlled study

COc1c(N2C[C@@H]3CCCN[C@@H]3C2)c(F)cc2c(=O)c(C(=O)O)cn(C3CC3)c12 [Moxifloxacin, reference compound]
Maximum Placebo-Adjusted Change from Baseline in QTcF ([1]; 400 mg, positive control): 14.0 ms

COc1cc2c(cc1OC)C1CC(=O)C(CC(C)C)CN1CC2 (stereo not shown) [tetrabenazine, 1,3,4,6,7,11b-Hexahydro-9,10-dimethoxy-3-(2-methylpropyl)-2H-benzo[a]quinoline]
dysphagia observed in patients [2]: 19% | Maximum Placebo-Adjusted Change from Baseline in QTcF ([1]; 50 mg single dose, fasted): 7.6 ms | time point at which the maximal ΔΔQTcF was observed ([1]; in vivo): 3 h | TMC score of the UHDRS [3, 5]: demonstrated to improve the TMC score | TMS [3, 5]: failed to show statistically significant improvement in TMS | adverse events suggestive of parkinsonism ([3]; 12-week randomized controlled trial): 15% | patients in whom dose escalation was discontinued or dosage reduced due to adverse events ([3]; 28 of 54 patients randomized): 52% | Adverse reaction Akathisia ([3]; N = 54): 10 (19) n (%) | Adverse reaction Anxiety/anxiety aggravated ([3]; N = 54): 8 (15) n (%) | Adverse reaction Appetite decreased ([3]; N = 54): 2 (4) n (%) | Adverse reaction Balance difficulty ([3]; N = 54): 5 (9) n (%) | Adverse reaction Bronchitis ([3]; N = 54): 2 (4) n (%) | Adverse reaction Depression ([3]; N = 54): 10 (19) n (%) | Adverse reaction Dizziness ([3]; N = 54): 2 (4) n (%) | Adverse reaction Dysarthria ([3]; N = 54): 2 (4) n (%) | Adverse reaction Dysuria ([3]; N = 54): 2 (4) n (%) | Adverse reaction Ecchymosis ([3]; N = 54): 3 (6) n (%) | Adverse reaction Fall ([3]; N = 54): 8 (15) n (%) | Adverse reaction Fatigue ([3]; N = 54): 12 (22) n (%) | Adverse reaction Gait unsteady ([3]; N = 54): 2 (4) n (%) | Adverse reaction Headache ([3]; N = 54): 2 (4) n (%) | Adverse reaction Insomnia ([3]; N = 54): 12 (22) n (%) | Adverse reaction Irritability ([3]; N = 54): 5 (9) n (%) | Adverse reaction Laceration (head) ([3]; N = 54): 3 (6) n (%) | Adverse reaction Nausea ([3]; N = 54): 7 (13) n (%) | Adverse reaction Obsessive reaction ([3]; N = 54): 2 (4) n (%) | Adverse reaction Parkinsonism/bradykinesia ([3]; N = 54): 5 (9) n (%) | Adverse reaction Sedation/somnolence ([3]; N = 54): 17 (31) n (%) | Adverse reaction Shortness of breath ([3]; N = 54): 2 (4) n (%) | Adverse reaction Upper respiratory tract infection ([3]; N = 54): 6 (11) n (%) | Adverse reaction Vomiting ([3]; N = 54): 3 (6) n (%) | boxed warning: depression and suicidality in patients with HD ([3]; prescribing information): increases the risk of depression and suicidal thoughts and behavior (suicidality) | mean increase in QTc interval [4]: approximately 8 ms
